Paper PMC9490041, “Determinants of affinity, specificity, and phase separation in a supramodule from Post-synaptic density protein 95” (iScience, 2022)
Read-outs that look alike come from different tables or passages of the source. Each block holds one molecule with its values, some of them ahead of it. Ends that are not written are not given here.

Legend:
Assay in all cases: FP displacement (competition) of FITC-15 AA CRIPT by library peptide, IC50 and Ki
PSG (PSD-95) = details: for IC50: read-out: IC50 (µM), PSG
PSG G322A (PSD-95) = details: for IC50: read-out: IC50 (µM), PSG G322A; for Ki: read-out: Ki (µM), PSG G322A
PSG G335A (PSD-95) = details: for IC50: read-out: IC50 (µM), PSG G335A; for Ki: read-out: Ki (µM), PSG G335A
PSG G322A G335A (PSD-95) = details: for IC50: read-out: IC50 (µM), PSG G322A G335A; for Ki: read-out: Ki (µM), PSG G322A G335A
[1] = FP displacement of FITC-15 AA CRIPT probe by PSD library peptide, protein PSG (wild type)
[2] = read-out: Ki (µM), PSG, FP displacement of FITC-15 AA CRIPT probe by PSD library peptide, protein PSG (wild type)
[3] = FP displacement of FITC-15 AA CRIPT probe by PSD library peptide, protein PSG G322A
[4] = FP displacement of FITC-15 AA CRIPT probe by PSD library peptide, protein PSG G335A
[5] = FP displacement of FITC-15 AA CRIPT probe by PSD library peptide, protein PSG G322A G335A
[6] = FP displacement of 5 nM FITC-15 AA CRIPT by non-labeled acetylated peptide, room temperature, Ki from IC50, technical triplicates, PSG
[7] = FP displacement of FITC-15 AA CRIPT probe by acetylated PSD library peptide
[8] = read-out: Ki (µM), PSG, FP displacement of FITC-15 AA CRIPT probe by acetylated PSD library peptide
[9] = FP displacement of FITC-15 AA CRIPT probe by acetylated PSD library peptide (P-13 to P0 plus extra N-terminal Y)

Molecule: CC[C@H](C)[C@H](NC(=O)[C@H](CC(N)=O)NC(=O)CNC(=O)CNC(=O)[C@H](CO)NC(=O)[C@H](Cc1ccc(O)cc1)NC(=O)[C@H](CCC(=O)O)NC(=O)[C@@H]1CCCN1C(=O)[C@H](Cc1ccc(O)cc1)NC(C)=O)C(=O)N[C@H](C(=O)N[C@@H](CCCNC(=N)N)C(=O)N[C@H](C(=O)N[C@@H](CO)C(=O)N[C@@H](C)C(=O)N[C@@H](CC(C)C)C(=O)O)C(C)C)C(C)C [KCND2]
- IC50 (PSG (PSD-95); [1]): 1500 µM
- Ki (PSG (PSD-95); [2]): 793 µM
- IC50 (PSG G322A (PSD-95); [3]): 564 µM
- Ki (PSG G322A (PSD-95); [3]): 244 µM
- IC50 (PSG G335A (PSD-95); [4]): 237 µM
- Ki (PSG G335A (PSD-95); [4]): 84 µM
- IC50 (PSG G322A G335A (PSD-95); [5]): 343 µM
- Ki (PSG G322A G335A (PSD-95); [5]): 119 µM

Molecule: CC(=O)N[C@@H](Cc1ccc(O)cc1)C(=O)N[C@@H](CC(=O)O)C(=O)N[C@@H](CO)C(=O)N[C@H](C(=O)N[C@@H](CCC(=O)O)C(=O)N[C@@H](CCC(N)=O)C(=O)N[C@@H](CO)C(=O)N[C@@H](CC(=O)O)C(=O)N[C@H](C(=O)N[C@@H](CCCNC(=N)N)C(=O)N[C@@H](Cc1ccccc1)C(=O)N[C@@H](CO)C(=O)N[C@@H](CO)C(=O)N[C@@H](C)C(=O)N[C@H](C(=O)O)C(C)C)C(C)C)[C@@H](C)O [GPER1]
- IC50 (PSG (PSD-95); [1]): 865 µM
- Ki (PSG (PSD-95); [2]): 456 µM
- IC50 (PSG G322A (PSD-95); [3]): 190 µM
- Ki (PSG G322A (PSD-95); [3]): 82 µM
- IC50 (PSG G335A (PSD-95); [4]): 499 µM
- Ki (PSG G335A (PSD-95); [4]): 178 µM
- IC50 (PSG G322A G335A (PSD-95); [5]): 238 µM
- Ki (PSG G322A G335A (PSD-95); [5]): 82 µM

Molecule: CC(=O)N[C@@H](Cc1ccc(O)cc1)C(=O)N[C@@H](CCCCN)C(=O)N[C@@H](CCCCN)C(=O)N[C@H](C(=O)N[C@@H](CC(C)C)C(=O)N[C@@H](CC(=O)O)C(=O)N[C@H](C(=O)N[C@@H](CCCCN)C(=O)N[C@@H](CC(N)=O)C(=O)N[C@@H](Cc1ccc(O)cc1)C(=O)N[C@@H](CCCCN)C(=O)N[C@@H](CCC(N)=O)C(=O)N[C@H](C(=O)N[C@@H](CO)C(=O)N[C@H](C(=O)O)C(C)C)[C@@H](C)O)[C@@H](C)O)C(C)C [CRIPT]
- Ki (PSG (PSD-95); [6]): < 75 µM
- IC50 (PSG (PSD-95); [1]): 6 µM
- Ki (PSG (PSD-95); [2]): 2.44 µM
- IC50 (PSG G322A (PSD-95); [3]): 1.49 µM
- Ki (PSG G322A (PSD-95); [3]): 0.496 µM
- IC50 (PSG G335A (PSD-95); [4]): 2 µM
- IC50 (PSG G322A G335A (PSD-95); [5]): 0.868 µM

Molecule: CC(=O)N[C@@H](Cc1ccc(O)cc1)C(=O)N[C@H](C(=O)N[C@@H](CCC(=O)O)C(=O)N[C@@H](CO)C(=O)N[C@@H](CCCCN)C(=O)N[C@@H](CCCCN)C(=O)N[C@@H](Cc1c[nH]cn1)C(=O)NCC(=O)N[C@@H](CCCNC(=N)N)C(=O)N[C@@H](Cc1c[nH]c2ccccc12)C(=O)N[C@@H](CCCCN)C(=O)N[C@@H](CC(C)C)C(=O)N[C@@H](Cc1c[nH]c2ccccc12)C(=O)N[C@@H](Cc1ccccc1)C(=O)N[C@@H](CC(C)C)C(=O)O)[C@@H](C)O [INSY2]
- IC50 (PSG (PSD-95); [7]): 380 µM
- Ki (PSG (PSD-95); [8]): 161 µM
- IC50 (PSG G322A (PSD-95); [7]): 83 µM
- Ki (PSG G322A (PSD-95); [7]): 36 µM
- IC50 (PSG G335A (PSD-95); [7]): 1230 µM
- Ki (PSG G335A (PSD-95); [7]): 438 µM
- IC50 (PSG G322A G335A (PSD-95); [9]): 980 µM
- Ki (PSG G322A G335A (PSD-95); [7]): 339 µM

Molecule: CC(=O)N[C@@H](Cc1ccc(O)cc1)C(=O)N[C@@H](CC(C)C)C(=O)N1CCC[C@H]1C(=O)N[C@@H](CC(C)C)C(=O)N[C@@H](CC(=O)O)C(=O)N[C@H](C(=O)N[C@@H](CCC(N)=O)C(=O)N[C@@H](CCC(=O)O)C(=O)NCC(=O)N[C@@H](CC(=O)O)C(=O)N[C@@H](Cc1ccccc1)C(=O)N[C@@H](CCC(N)=O)C(=O)N[C@H](C(=O)N[C@@H](CCC(=O)O)C(=O)N[C@H](C(=O)O)C(C)C)[C@@H](C)O)C(C)C [AGRB3]
- IC50 (PSG (PSD-95); [7]): 1080 µM
- Ki (PSG (PSD-95); [8]): 459 µM
- IC50 (PSG G322A (PSD-95); [7]): 342 µM
- Ki (PSG G322A (PSD-95); [7]): 148 µM
- IC50 (PSG G335A (PSD-95); [7]): 1130 µM
- Ki (PSG G335A (PSD-95); [7]): 402 µM
- IC50 (PSG G322A G335A (PSD-95); [9]): 534 µM
- Ki (PSG G322A G335A (PSD-95); [7]): 185 µM

More lines, now with the values ahead:

- IC50 (PSG (PSD-95); [1]): 2120 µM
- Ki (PSG (PSD-95); [2]): 902 µM
- IC50 (PSG G322A (PSD-95); [3]): 462 µM
- Ki (PSG G322A (PSD-95); [3]): 200 µM
- IC50 (PSG G335A (PSD-95); [4]): 630 µM
- Ki (PSG G335A (PSD-95); [4]): 224 µM
- IC50 (PSG G322A G335A (PSD-95); [5]): 662 µM
- Ki (PSG G322A G335A (PSD-95); [5]): 229 µM
Molecule: CC[C@H](C)[C@H](NC(=O)[C@H](CCC(=O)O)NC(=O)[C@@H](NC(=O)[C@H](CO)NC(=O)[C@H](CCC(=O)O)NC(=O)[C@@H](NC(=O)[C@H](CCCNC(=N)N)NC(=O)[C@H](CCC(=O)O)NC(=O)[C@H](CC(C)C)NC(=O)[C@H](CCCNC(=N)N)NC(=O)[C@H](CO)NC(=O)[C@@H]1CCCN1C(=O)[C@@H](NC(=O)[C@H](Cc1c[nH]c2ccccc12)NC(=O)[C@H](Cc1ccc(O)cc1)NC(C)=O)[C@@H](C)O)[C@@H](C)CC)[C@@H](C)O)C(=O)O [LZTS3]

- IC50 (PSG (PSD-95); [1]): 631 µM
- Ki (PSG (PSD-95); [2]): 269 µM
- IC50 (PSG G322A (PSD-95); [3]): 156 µM
- Ki (PSG G322A (PSD-95); [3]): 68 µM
- IC50 (PSG G335A (PSD-95); [4]): 329 µM
- Ki (PSG G335A (PSD-95); [4]): 117 µM
- IC50 (PSG G322A G335A (PSD-95); [5]): 147 µM
- Ki (PSG G322A G335A (PSD-95); [5]): 51 µM
Molecule: CC(=O)N[C@@H](Cc1ccc(O)cc1)C(=O)N[C@@H](CCCNC(=N)N)C(=O)N[C@@H](CCC(N)=O)C(=O)N1CCC[C@H]1C(=O)N[C@@H](CC(C)C)C(=O)N1CCC[C@H]1C(=O)N[C@@H](CC(=O)O)C(=O)N[C@@H](CO)C(=O)N[C@@H](CC(N)=O)C(=O)N1CCC[C@H]1C(=O)N[C@@H](CCC(=O)O)C(=O)N[C@@H](CCC(=O)O)C(=O)N[C@@H](CO)C(=O)N[C@@H](CO)C(=O)N[C@H](C(=O)O)C(C)C [SEM4C]

- Ki (PSG (PSD-95); [6]): < 75 µM
- IC50 (PSG (PSD-95); [7]): 75 µM
- Ki (PSG (PSD-95); [8]): 31 µM
- IC50 (PSG G322A (PSD-95); [7]): 86 µM
- Ki (PSG G322A (PSD-95); [7]): 37 µM
- IC50 (PSG G335A (PSD-95); [7]): 120 µM
- Ki (PSG G335A (PSD-95); [7]): 43 µM
- IC50 (PSG G322A G335A (PSD-95); [9]): 73 µM
Molecule: CC[C@H](C)[C@H](NC(=O)[C@H](CCC(=O)O)NC(=O)[C@H](CCC(=O)O)NC(=O)[C@@H](NC(=O)[C@@H](NC(=O)[C@H](CO)NC(=O)[C@H](CCC(=O)O)NC(=O)[C@H](Cc1ccc(O)cc1)NC(C)=O)[C@@H](C)O)[C@@H](C)O)C(=O)N[C@@H](CCC(=O)O)C(=O)N[C@@H](CC(C)C)C(=O)N[C@@H](CCC(=O)O)C(=O)N[C@@H](CC(=O)O)C(=O)N[C@H](C(=O)N[C@@H](CCC(=O)O)C(=O)N[C@@H](CS)C(=O)O)C(C)C [VSTM5]

- IC50 (PSG (PSD-95); [1]): 1120 µM
- Ki (PSG (PSD-95); [2]): 475 µM
- IC50 (PSG G322A (PSD-95); [3]): 695 µM
- Ki (PSG G322A (PSD-95); [3]): 301 µM
- IC50 (PSG G335A (PSD-95); [4]): 980 µM
- Ki (PSG G335A (PSD-95); [4]): 349 µM
- IC50 (PSG G322A G335A (PSD-95); [5]): 1680 µM
- Ki (PSG G322A G335A (PSD-95); [5]): 580 µM
Molecule: CC(=O)N[C@@H](Cc1ccc(O)cc1)C(=O)N1CCC[C@H]1C(=O)N[C@@H](CCC(N)=O)C(=O)N[C@@H](Cc1c[nH]cn1)C(=O)N[C@@H](CC(C)C)C(=O)N[C@@H](CCCNC(=N)N)C(=O)N[C@H](C(=O)N[C@@H](C)C(=O)N[C@@H](CO)C(=O)N[C@@H](CCCCN)C(=O)N[C@@H](CC(N)=O)C(=O)N[C@@H](CCC(=O)O)C(=O)N[C@H](C(=O)N[C@H](C(=O)N[C@H](C(=O)O)C(C)C)[C@@H](C)O)C(C)C)[C@@H](C)O [SHSA7]

- IC50 (PSG (PSD-95); [7]): 1740 µM
- Ki (PSG (PSD-95); [8]): 743 µM
- IC50 (PSG G322A (PSD-95); [7]): 503 µM
- Ki (PSG G322A (PSD-95); [7]): 218 µM
- IC50 (PSG G335A (PSD-95); [7]): 764 µM
- Ki (PSG G335A (PSD-95); [7]): 272 µM
- IC50 (PSG G322A G335A (PSD-95); [9]): 536 µM
- Ki (PSG G322A G335A (PSD-95); [7]): 185 µM
Molecule: Ac-YLTGAPLATSDETSI [SEM4F]
